Laboratory results reported in the kinase profiling compilation of Christmann-Franck et al. (2016).

Key:
Experiment in all cases: KINOMEscan competition binding
Conditions in all cases: compound 10.0 µM
AKT3 (human) = AKT3 (human) (UniProt Q9Y243)
CDK14 (human) = CDK14 (human) (UniProt O94921)
BTK (human) = BTK (human) (UniProt Q06187)
PRKCH (human) = PRKCH (human) (UniProt P24723)
TESK1 (human) = TESK1 (human) (UniProt Q15569)
RPS6KA3 KD1 (human) = RPS6KA3 KD1 (human) (UniProt P51812)
AKT2 (human) = AKT2 (human) (UniProt P31751)
AKT2 (human), sequence (P31751 whole entry, looked up): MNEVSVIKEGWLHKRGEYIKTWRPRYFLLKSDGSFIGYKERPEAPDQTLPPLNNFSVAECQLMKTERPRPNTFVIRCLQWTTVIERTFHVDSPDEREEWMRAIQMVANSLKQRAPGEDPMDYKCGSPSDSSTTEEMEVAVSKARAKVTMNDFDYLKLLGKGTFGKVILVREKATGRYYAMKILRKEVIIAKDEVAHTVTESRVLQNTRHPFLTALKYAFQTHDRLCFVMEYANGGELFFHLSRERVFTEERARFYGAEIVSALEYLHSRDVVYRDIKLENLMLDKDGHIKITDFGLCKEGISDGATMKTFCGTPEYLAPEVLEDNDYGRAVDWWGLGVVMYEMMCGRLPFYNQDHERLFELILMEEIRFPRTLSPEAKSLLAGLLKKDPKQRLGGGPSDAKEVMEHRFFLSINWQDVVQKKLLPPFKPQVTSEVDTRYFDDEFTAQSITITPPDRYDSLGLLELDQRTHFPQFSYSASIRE

PIP5K1C (human) = PIP5K1C (human) (UniProt O60331)
PDGFRA (human) = PDGFRA (human) (UniProt P16234)
[1] = test system: KIT (human), P10721 [L576P]
TXK (human) = TXK (human) (UniProt P42681)
CSK (human) = CSK (human) (UniProt P41240)
ERBB3 (human) = ERBB3 (human) (UniProt P21860)
EIF2AK2 (human) = EIF2AK2 (human) (UniProt P19525)
CDKL3 (human) = CDKL3 (human) (UniProt Q8IVW4)
TGFBR2 (human) = TGFBR2 (human) (UniProt P37173)
PRPF4B (human) = PRPF4B (human) (UniProt Q13523)
ACVR2B (human) = ACVR2B (human) (UniProt Q13705)
PI4KB (human) = PI4KB (human) (UniProt Q9UBF8)
DMPK (human) = DMPK (human) (UniProt Q09013)
PRKAA1 (human) = PRKAA1 (human) (UniProt Q13131)
PRKAA1 (human), sequence (Q13131 whole entry, looked up): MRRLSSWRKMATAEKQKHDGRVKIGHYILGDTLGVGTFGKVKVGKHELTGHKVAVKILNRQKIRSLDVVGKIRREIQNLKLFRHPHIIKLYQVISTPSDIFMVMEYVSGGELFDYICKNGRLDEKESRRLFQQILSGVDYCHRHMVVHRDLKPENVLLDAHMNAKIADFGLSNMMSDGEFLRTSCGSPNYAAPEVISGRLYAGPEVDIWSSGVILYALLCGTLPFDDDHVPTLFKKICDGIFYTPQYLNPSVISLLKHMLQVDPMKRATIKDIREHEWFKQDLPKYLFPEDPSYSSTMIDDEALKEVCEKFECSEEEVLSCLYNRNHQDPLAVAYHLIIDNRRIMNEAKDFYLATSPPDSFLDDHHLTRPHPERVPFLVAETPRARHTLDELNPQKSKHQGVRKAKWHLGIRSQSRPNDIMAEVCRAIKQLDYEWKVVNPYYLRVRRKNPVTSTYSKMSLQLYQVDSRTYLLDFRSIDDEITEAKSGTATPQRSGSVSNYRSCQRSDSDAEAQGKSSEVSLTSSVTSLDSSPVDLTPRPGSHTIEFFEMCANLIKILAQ

MYLK (human) = MYLK (human) (UniProt Q15746)
MAPK10 (human) = MAPK10 (human) (UniProt P53779)
PIM2 (human) = PIM2 (human) (UniProt Q9P1W9)
PIM2 (human), sequence (Q9P1W9 whole entry, looked up): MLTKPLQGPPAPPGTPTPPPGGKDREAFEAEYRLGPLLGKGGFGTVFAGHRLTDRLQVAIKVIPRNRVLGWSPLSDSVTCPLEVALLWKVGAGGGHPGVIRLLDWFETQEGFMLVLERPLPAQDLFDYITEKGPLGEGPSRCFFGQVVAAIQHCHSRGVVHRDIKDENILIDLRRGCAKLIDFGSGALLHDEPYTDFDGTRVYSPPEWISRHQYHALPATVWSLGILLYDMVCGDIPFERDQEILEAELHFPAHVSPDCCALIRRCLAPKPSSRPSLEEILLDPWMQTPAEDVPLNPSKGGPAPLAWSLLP

MATK (human) = MATK (human) (UniProt P42679)
MATK (human), sequence (P42679 whole entry, looked up): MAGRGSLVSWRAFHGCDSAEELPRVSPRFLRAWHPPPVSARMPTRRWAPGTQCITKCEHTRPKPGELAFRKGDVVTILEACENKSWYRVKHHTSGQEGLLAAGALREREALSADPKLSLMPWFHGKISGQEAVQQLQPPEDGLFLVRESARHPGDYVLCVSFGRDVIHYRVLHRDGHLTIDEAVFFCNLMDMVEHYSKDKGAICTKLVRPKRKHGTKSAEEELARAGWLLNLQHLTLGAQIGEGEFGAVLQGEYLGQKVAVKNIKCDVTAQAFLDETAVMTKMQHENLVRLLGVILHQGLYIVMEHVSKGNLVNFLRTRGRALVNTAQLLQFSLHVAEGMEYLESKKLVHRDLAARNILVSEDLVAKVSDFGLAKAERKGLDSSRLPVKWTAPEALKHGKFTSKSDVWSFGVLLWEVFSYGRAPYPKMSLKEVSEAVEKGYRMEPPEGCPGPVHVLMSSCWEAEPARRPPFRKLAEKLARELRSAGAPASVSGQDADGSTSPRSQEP

SGK3 (human) = SGK3 (human) (UniProt Q96BR1)
ZAP70 (human) = ZAP70 (human) (UniProt P43403)
HIPK3 (human) = HIPK3 (human) (UniProt Q9H422)
ITK (human) = ITK (human) (UniProt Q08881)
ULK2 (human) = ULK2 (human) (UniProt Q8IYT8)
FLT3 (human) = FLT3 (human) (UniProt P36888)
CSNK1D (human) = CSNK1D (human) (UniProt P48730)
NTRK2 (human) = NTRK2 (human) (UniProt Q16620)
IRAK3 (human) = IRAK3 (human) (UniProt Q9Y616)
[2] = molecular target: TYK2 JH2 pseudokinase (human) (UniProt P29597)
IGF1R (human) = IGF1R (human) (UniProt P08069)
TBK1 (human) = TBK1 (human) (UniProt Q9UHD2)
TBK1 (human), sequence (Q9UHD2 whole entry, looked up): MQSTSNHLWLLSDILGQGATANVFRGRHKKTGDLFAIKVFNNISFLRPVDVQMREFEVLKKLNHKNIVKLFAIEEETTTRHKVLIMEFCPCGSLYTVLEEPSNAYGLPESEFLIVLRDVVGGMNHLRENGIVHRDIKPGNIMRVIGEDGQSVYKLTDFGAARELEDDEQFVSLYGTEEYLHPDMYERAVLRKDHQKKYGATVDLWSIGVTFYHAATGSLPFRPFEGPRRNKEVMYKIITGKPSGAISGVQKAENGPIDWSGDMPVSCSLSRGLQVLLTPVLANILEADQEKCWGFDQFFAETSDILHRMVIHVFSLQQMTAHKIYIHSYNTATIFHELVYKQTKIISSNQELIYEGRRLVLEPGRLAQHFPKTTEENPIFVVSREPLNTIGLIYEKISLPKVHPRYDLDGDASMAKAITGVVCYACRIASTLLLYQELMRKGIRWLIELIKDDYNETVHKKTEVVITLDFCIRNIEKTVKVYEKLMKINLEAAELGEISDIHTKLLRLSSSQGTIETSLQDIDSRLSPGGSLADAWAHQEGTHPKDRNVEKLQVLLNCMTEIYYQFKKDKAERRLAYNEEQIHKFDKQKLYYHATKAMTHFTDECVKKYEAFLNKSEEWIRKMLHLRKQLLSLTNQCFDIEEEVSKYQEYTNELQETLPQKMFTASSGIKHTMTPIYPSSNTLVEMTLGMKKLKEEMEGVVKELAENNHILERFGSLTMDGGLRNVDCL

RPS6KA1 KD2 (human) = RPS6KA1 KD2 (human) (UniProt Q15418)
CAMKK2 (human) = CAMKK2 (human) (UniProt Q96RR4)
CAMKK2 (human), sequence (Q96RR4 whole entry, looked up): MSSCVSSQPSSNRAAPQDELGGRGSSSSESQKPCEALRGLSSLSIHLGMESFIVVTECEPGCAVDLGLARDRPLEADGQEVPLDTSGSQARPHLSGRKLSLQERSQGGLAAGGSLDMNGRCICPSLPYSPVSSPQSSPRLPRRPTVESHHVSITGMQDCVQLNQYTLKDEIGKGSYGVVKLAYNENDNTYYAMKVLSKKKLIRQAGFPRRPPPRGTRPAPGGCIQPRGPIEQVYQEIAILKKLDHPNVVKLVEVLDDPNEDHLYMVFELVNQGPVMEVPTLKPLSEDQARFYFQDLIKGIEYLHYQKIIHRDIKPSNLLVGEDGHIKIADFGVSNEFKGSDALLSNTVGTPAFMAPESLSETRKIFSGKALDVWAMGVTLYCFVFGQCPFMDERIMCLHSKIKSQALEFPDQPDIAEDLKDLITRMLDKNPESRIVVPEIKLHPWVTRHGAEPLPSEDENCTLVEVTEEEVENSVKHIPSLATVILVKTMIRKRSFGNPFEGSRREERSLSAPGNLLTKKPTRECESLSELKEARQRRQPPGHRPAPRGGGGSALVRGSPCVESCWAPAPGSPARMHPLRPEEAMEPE

WEE1 (human) = WEE1 (human) (UniProt P30291)

PRKCH (human), sequence (P24723 whole entry, looked up): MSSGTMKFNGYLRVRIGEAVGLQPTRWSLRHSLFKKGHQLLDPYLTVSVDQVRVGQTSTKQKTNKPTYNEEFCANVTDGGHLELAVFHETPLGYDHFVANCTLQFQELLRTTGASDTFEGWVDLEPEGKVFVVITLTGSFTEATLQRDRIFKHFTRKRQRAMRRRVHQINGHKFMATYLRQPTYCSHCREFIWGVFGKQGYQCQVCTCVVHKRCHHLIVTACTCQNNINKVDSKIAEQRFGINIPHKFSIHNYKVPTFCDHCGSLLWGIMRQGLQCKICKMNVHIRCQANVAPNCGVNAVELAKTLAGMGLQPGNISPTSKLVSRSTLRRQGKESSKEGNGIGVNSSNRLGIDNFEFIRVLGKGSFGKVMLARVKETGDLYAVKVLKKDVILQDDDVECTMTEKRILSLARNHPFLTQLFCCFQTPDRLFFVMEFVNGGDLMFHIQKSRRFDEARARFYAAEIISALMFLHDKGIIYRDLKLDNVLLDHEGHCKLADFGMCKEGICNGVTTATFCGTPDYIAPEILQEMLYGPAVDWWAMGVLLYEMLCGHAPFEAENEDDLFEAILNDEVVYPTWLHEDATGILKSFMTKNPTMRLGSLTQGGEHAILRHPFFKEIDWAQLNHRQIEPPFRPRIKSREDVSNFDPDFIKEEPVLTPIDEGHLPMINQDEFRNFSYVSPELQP
CDK14 (human), sequence (O94921 whole entry, looked up): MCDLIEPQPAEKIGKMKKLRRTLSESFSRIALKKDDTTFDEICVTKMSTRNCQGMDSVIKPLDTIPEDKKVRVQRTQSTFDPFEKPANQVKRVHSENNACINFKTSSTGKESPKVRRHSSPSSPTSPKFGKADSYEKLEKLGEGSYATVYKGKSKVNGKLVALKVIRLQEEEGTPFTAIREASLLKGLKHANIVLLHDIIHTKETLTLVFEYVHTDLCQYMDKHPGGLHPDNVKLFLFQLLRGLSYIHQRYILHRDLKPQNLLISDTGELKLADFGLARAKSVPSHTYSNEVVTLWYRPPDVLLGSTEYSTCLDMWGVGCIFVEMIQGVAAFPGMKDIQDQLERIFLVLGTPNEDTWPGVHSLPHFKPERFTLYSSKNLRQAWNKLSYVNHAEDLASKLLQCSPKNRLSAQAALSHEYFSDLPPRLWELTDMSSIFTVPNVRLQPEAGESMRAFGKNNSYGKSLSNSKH
BTK (human), sequence (Q06187 whole entry, looked up): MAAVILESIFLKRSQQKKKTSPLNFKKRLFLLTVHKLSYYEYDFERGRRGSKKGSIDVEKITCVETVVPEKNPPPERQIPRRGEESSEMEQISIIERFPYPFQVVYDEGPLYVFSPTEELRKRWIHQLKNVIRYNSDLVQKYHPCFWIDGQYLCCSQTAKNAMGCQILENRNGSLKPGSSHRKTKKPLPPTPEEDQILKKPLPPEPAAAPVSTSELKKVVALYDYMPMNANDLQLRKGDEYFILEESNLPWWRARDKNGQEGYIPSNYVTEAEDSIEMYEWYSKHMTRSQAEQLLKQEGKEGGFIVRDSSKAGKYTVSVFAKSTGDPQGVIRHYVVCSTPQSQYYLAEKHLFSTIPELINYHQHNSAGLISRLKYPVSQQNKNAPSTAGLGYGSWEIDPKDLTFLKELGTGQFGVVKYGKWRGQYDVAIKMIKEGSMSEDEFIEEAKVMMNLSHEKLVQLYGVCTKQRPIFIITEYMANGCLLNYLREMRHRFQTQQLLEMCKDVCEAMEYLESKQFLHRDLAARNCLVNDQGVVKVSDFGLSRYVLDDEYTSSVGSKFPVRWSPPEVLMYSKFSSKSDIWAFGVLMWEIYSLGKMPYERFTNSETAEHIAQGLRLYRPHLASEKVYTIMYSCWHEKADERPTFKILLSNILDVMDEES

SMILES | kinase still bound, per cent of control (AKT3 (human)) [%] | kinase still bound, per cent of control (CDK14 (human)) [%] | kinase still bound, per cent of control (BTK (human)) [%] | kinase still bound, per cent of control (PRKCH (human)) [%] | kinase still bound, per cent of control (TESK1 (human)) [%] | kinase still bound, per cent of control (RPS6KA3 KD1 (human)) [%] | kinase still bound, per cent of control (AKT2 (human)) [%] | kinase still bound, per cent of control (PIP5K1C (human)) [%] | kinase still bound, per cent of control (TXK (human)) [%] | kinase still bound, per cent of control (CSK (human)) [%] | kinase still bound, per cent of control (ERBB3 (human)) [%] | kinase still bound, per cent of control (EIF2AK2 (human)) [%] | kinase still bound, per cent of control (CDKL3 (human)) [%] | kinase still bound, per cent of control (TGFBR2 (human)) [%] | kinase still bound, per cent of control (PRPF4B (human)) [%] | kinase still bound, per cent of control (ACVR2B (human)) [%] | kinase still bound, per cent of control (PI4KB (human)) [%] | kinase still bound, per cent of control (PRKAA1 (human)) [%] | kinase still bound, per cent of control (MYLK (human)) [%] | kinase still bound, per cent of control (MAPK10 (human)) [%] | also measured
COc1cc(C(=O)N2CCC(N3CCN(C)CC3)CC2)ccc1Nc1ncc2c(n1)N(C)c1ccccc1C(=O)N2C | 100 | 81 | 100 | 100 | 82 | 77 | 100 | 96 | 91 | 90 | 100 | 84 | 83 | 100 | 93 | 100 | 95 | 51 | 8.7 | 77 | kinase still bound, per cent of control (PDGFRA (human)): 100%; kinase still bound, per cent of control [1]: 100%; kinase still bound, per cent of control (DMPK (human)): 100%; kinase still bound, per cent of control (PIM2 (human)): 100%; kinase still bound, per cent of control (MATK (human)): 100%; kinase still bound, per cent of control (SGK3 (human)): 95%; kinase still bound, per cent of control (ZAP70 (human)): 79%; kinase still bound, per cent of control (HIPK3 (human)): 89%; kinase still bound, per cent of control (ITK (human)): 82%; kinase still bound, per cent of control (ULK2 (human)): 67%; kinase still bound, per cent of control (FLT3 (human)): 100%; kinase still bound, per cent of control (CSNK1D (human)): 81%; kinase still bound, per cent of control (NTRK2 (human)): 100%; kinase still bound, per cent of control (IRAK3 (human)): 100%; kinase still bound, per cent of control [2]: 100%; kinase still bound, per cent of control (IGF1R (human)): 96%; kinase still bound, per cent of control (TBK1 (human)): 97%; kinase still bound, per cent of control (RPS6KA1 KD2 (human)): 10%; kinase still bound, per cent of control (CAMKK2 (human)): 31%; kinase still bound, per cent of control (WEE1 (human)): 100%
COCC(=O)NC/C=C/c1ccc2ncnc(Nc3ccc(Oc4ccc(C)nc4)c(C)c3)c2c1 | 100 | 100 | 68 | 100 | 75 | 92 | 100 | 93 | 84 | 59 | 20 | 99 | 100 | 94 | 93 | 100 | 100 | 89 | 87 | 68 | kinase still bound, per cent of control (PDGFRA (human)): 56%; kinase still bound, per cent of control [1]: 54%; kinase still bound, per cent of control (PIM2 (human)): 100%; kinase still bound, per cent of control (MATK (human)): 100%; kinase still bound, per cent of control (SGK3 (human)): 100%; kinase still bound, per cent of control (ZAP70 (human)): 100%; kinase still bound, per cent of control (HIPK3 (human)): 100%; kinase still bound, per cent of control (ITK (human)): 92%; kinase still bound, per cent of control (ULK2 (human)): 100%; kinase still bound, per cent of control (FLT3 (human)): 100%; kinase still bound, per cent of control (CSNK1D (human)): 90%; kinase still bound, per cent of control (NTRK2 (human)): 100%; kinase still bound, per cent of control (IRAK3 (human)): 82%; kinase still bound, per cent of control [2]: 24%; kinase still bound, per cent of control (IGF1R (human)): 83%; kinase still bound, per cent of control (TBK1 (human)): 90%; kinase still bound, per cent of control (RPS6KA1 KD2 (human)): 73%; kinase still bound, per cent of control (CAMKK2 (human)): 85%; kinase still bound, per cent of control (WEE1 (human)): 100%
NC(=O)Nc1cc(-c2cccc(F)c2)sc1C(=O)N[C@@H]1CCCNC1 | 100 | 100 | 0.2 | 1.4 | 11 | 0.95 | 60 | 27 | 0.1 | 0.05 | 28 | 3.4 | 100 | 2.4 | 7.4 | 3.8 | 100 | 0.2 | 3.3 | 63 | kinase still bound, per cent of control (DMPK (human)): 12%; kinase still bound, per cent of control (PIM2 (human)): 57%; kinase still bound, per cent of control (MATK (human)): 34%; kinase still bound, per cent of control (SGK3 (human)): 27%; kinase still bound, per cent of control (ZAP70 (human)): 0%; kinase still bound, per cent of control (HIPK3 (human)): 12%; kinase still bound, per cent of control (ITK (human)): 0.55%; kinase still bound, per cent of control (ULK2 (human)): 0%; kinase still bound, per cent of control (FLT3 (human)): 0%; kinase still bound, per cent of control (CSNK1D (human)): 15%; kinase still bound, per cent of control (NTRK2 (human)): 0.35%; kinase still bound, per cent of control (IRAK3 (human)): 6.4%; kinase still bound, per cent of control [2]: 3.2%; kinase still bound, per cent of control (IGF1R (human)): 44%; kinase still bound, per cent of control (TBK1 (human)): 4.8%; kinase still bound, per cent of control (RPS6KA1 KD2 (human)): 1.4%; kinase still bound, per cent of control (CAMKK2 (human)): 2.9%; kinase still bound, per cent of control (WEE1 (human)): 50%
